# Test results reported in US20090176839A1, “FORMULATIONS OF 3-(6-(1-(2,2-DIFLUOROBENZO[D][1,3]DIOXOL-5-YL) CYCLOPROPANECARBOXAMIDO)-3-METHYLPYRIDIN-2-YL)BENZOIC ACID” (priority 2007, published 2009).
# “Also recorded” adds a separate entry of the source. Where two headings read alike, the source gives them in different places.
# How the values were obtained:
# male mice = assay: In vivo mouse micronucleus assay; conditions: oral gavage at doses up to 2000 mg/kg
# Experimental: (§1) The potential for genetic toxicology was tested using standard GLP bacterial mutation (Ames), Chinese hamster ovary (CHO) chromosome aberration, and in vivo mouse micronucleus assays: Compound 1 was negative in all tests. […] With the exception of the preliminary 7-day toxicity studies, all studies were performed according to GLP regulations.
# in vivo = assay: in vivo; set-up: species or system dogs; conditions: both sexes, dog
# Experimental: (§2) One dog per gender was dosed orally with the vehicle (0.5% methylcellulose+0.5% Tween80 in water), or 25, 50, or 100 mg/kg/day Compound 1 for 7 consecutive days. The dose volume was 5 mL/kg/day for all dose groups. Plasma samples were collected on Days 1 and 7 for TK analysis and viability, clinical observations, body weights, feed consumption, clinical pathology (termination), organ weights, macroscopic observations, and microscopic pathology were evaluated.
# dogs [1] = assay: in vivo; conditions: dog
# Experimental: as §2
# hERG [2] = molecular target: T1, hERG (Homo sapiens, UniProt Q12809); assay: hERG electrophysiological techniques; type: cell-based; conditions: variety of electrophysiological techniques
# [3] = test system: Chinese hamster ovary (CHO) cell; assay: Chinese hamster ovary (CHO) chromosome aberration assay; type: cell-based; conditions: GLP
# Experimental: as §1
# dogs [4] = conditions: dog, in vivo
# Experimental: Repeat-dose oral toxicity studies of 7- and 14-days duration have been conducted in rats (up to 600 mg/kg/day) and dogs (up to 200 mg/kg/day).
# [5] = male, beagle, dog, in vivo, 200 mg/kg
# [6] = Single oral pharmacokinetics of the free form in suspension in male rats; type: in vivo, male Sprague Dawley rats; conditions: for AUC(0-inf): free form suspension, mean (SD)
# Experimental: The pharmacokinetics of Compound 1 were assessed in the same species used in the toxicology studies: CD-1 mice, Sprague Dawley rats and beagle dogs. The pharmacokinetics of Compound 1 were also assessed in cynomolgus monkeys.
# Non-validated research grade assays were used for these analyses. All pharmacokinetic studies were conducted using fed animals unless otherwise specified.
# At 600 mg/kg, the increase in systemic exposure was less than proportional to the increase in dose. Bioavailability ranged from 47% to ˜100% across the 1 to 600 mg/kg oral dose range in rats, indicating excellent absorption of the compound.
# [7] = Toxicokinetics in 7-day dose range finding study in dogs; type: in vivo; conditions: 100 mg/kg/day; for Cmax: dog, plasma, oral
# Experimental: as §2
# The plasma AUC0-24 data on Day 1 was consistent with previously conducted single dose studies of Compound 1 in the dog.
# hERG [8] = molecular target: T1, hERG; assay: hERG channel competitive binding (3H-astemizole); conditions: probe 3H-astemizole
# [9] = molecular target: T2, Thromboxane A2 (TXA2) receptor (TP receptor) (Homo sapiens, UniProt P21731); assay: Radiolabel binding counter screen (MDS Pharma Services)
# T2 construct: MDS Pharma Services MDSPS PT#: 1083321
# T2 sequence (P21731 1-343): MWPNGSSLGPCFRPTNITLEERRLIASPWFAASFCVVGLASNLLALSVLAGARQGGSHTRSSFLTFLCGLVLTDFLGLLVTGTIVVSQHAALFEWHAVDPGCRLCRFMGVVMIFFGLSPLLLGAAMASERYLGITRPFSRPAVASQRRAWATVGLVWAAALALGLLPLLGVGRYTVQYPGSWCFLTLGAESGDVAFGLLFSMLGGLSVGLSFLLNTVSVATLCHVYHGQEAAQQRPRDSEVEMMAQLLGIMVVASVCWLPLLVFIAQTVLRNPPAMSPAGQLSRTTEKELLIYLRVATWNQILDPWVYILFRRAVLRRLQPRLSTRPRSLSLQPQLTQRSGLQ
# Source text: Compound 1 was counter screened against a broad panel of enzymes and receptors using radiolabel binding studies (see MDS Pharma Services, LeadProfiling and SpectrumScreen, MDSPS PT#: 1083321).
# [10] = Toxicokinetics in acute oral toxicity study in mice; type: in vivo; conditions: plasma
# Source text: Compound 1 was well absorbed in mice with time to reach maximum plasma concentrations (tmax) ranging from 0.5 to 2.0 hr. […] There were no significant gender-related effects in Compound 1 exposures noted.
# [11] = Sprague Dawley, rat, plasma, po, male rats, free form, 1 mg/kg
# [12] = Sprague Dawley, rat, plasma, po, male rats, free form, 30 mg/kg
# [13] = Sprague Dawley, rat, plasma, po, male rats, free form, 150 mg/kg
# [14] = Sprague Dawley, rat, plasma, po, male rats, free form, 300 mg/kg
# [15] = Sprague Dawley, rat, plasma, po, male rats, free form, 600 mg/kg
# [16] = male rats, free form, 150 mg/kg
# [17] = male rats, free form, 300 mg/kg
# [18] = male rats, free form, 600 mg/kg
# T1 sequence (Q12809 whole entry): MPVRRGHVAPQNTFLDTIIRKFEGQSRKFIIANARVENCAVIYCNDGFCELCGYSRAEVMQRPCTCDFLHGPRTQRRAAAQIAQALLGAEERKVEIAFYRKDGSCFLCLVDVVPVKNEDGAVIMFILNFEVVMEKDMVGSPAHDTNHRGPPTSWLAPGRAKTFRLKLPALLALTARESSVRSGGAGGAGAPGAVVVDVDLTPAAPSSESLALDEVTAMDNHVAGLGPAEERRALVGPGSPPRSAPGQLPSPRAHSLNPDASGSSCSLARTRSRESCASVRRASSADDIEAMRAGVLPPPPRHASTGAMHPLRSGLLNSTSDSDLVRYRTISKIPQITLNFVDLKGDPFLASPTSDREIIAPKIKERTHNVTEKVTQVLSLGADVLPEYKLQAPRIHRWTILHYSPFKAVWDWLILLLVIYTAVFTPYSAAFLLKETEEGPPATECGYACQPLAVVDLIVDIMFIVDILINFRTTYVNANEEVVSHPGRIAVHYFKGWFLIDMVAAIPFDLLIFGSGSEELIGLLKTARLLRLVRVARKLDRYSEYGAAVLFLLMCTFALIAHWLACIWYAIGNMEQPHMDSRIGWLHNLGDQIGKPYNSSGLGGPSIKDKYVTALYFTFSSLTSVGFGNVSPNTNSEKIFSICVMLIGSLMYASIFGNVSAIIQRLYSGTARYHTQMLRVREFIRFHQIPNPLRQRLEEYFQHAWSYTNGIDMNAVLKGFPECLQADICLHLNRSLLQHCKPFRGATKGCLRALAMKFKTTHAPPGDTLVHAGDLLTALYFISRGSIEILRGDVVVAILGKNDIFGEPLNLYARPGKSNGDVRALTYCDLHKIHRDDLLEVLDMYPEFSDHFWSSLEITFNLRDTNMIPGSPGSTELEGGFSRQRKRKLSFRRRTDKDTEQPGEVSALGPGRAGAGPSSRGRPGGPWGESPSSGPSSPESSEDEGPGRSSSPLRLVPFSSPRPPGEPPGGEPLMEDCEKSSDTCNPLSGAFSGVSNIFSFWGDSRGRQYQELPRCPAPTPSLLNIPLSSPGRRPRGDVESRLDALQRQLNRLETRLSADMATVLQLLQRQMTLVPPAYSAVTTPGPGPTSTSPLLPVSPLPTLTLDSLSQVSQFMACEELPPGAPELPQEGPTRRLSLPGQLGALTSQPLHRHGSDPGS
structure (smiles),measurement,setting,value
"Cc1ccc(NC(=O)C2(c3ccc4c(c3)OC(F)(F)O4)CC2)nc1-c1cccc(C(=O)O)c1 [Compound 1, 3-(6-(1-(2,2-difluorobenzo[d][1,3]dioxol-5-yl)cyclopropanecarboxamido)-3-methylpyridin-2-yl)benzoic acid]",number of micronucleated polychromatic erythrocytes,male mice,negative; also recorded: did not induce a significant increase
same,NOAEL at 7 days,in vivo,100 mg/kg/day
same,"food consumption, hematologies, coagulations parameters, ECG measurements",dogs [1],no effects
same,gross lesions and histopathological findings,dogs [1],no test article related gross lesions or histopathological findings
same,body weight loss,dogs [1]; 100 mg/kg/day,0.3 kg
same,IC50,hERG [2],≥ 30 µM
same,clastogenicity (chromosome aberrations),[3],negative
same,ECG tracings and opthalmology examinations,dogs [4],within normal limits
same,"RBC parameters, decreases",dogs [4],7-14%
same,"total cholesterol, decreases",dogs [4],21-29%
same,"triglycerides, decreases",dogs [4],44-46%
same,light microscopy findings,dogs [4]; 14 days,no significant Compound 1 related findings
same,dosage tolerated without toxic effect,"dogs [4]; po, 14 days",up to 200 mg/kg/day
same,F,[5],20%
same,tlast,[5],48 h
same,concentration at 48 hr,"[6]; Sprague Dawley, rat, plasma, oral, male rats, free form, 1 mg/kg, read-out: Clast",28.8 ng/mL
same,concentration at 48 h,"[6]; Sprague Dawley, rat, plasma, oral, male rats, free form, 30 mg/kg, read-out: Clast",44 ng/mL
same,concentration at 72 hr,"[6]; Sprague Dawley, rat, plasma, oral, male rats, free form, 150 mg/kg, read-out: Clast",51.6 ng/mL
same,concentration at 48 hr,"[6]; Sprague Dawley, rat, plasma, oral, male rats, free form, 300 mg/kg, read-out: Clast",1120 ng/mL
same,concentration at 72 hr,"[6]; Sprague Dawley, rat, plasma, oral, male rats, free form, 600 mg/kg, read-out: Clast",1240 ng/mL
same,AUC(0-inf),"[6]; Sprague Dawley, rat, plasma, po, male rats, nominal dose 1 mg/kg",13.7 µg·h/mL
same,AUC(0-inf),"[6]; Sprague Dawley, rat, plasma, po, male rats, nominal dose 30 mg/kg",369 µg·h/mL
same,AUC(0-inf),"[6]; Sprague Dawley, rat, plasma, po, male rats, nominal dose 150 mg/kg",728 µg·h/mL
same,AUC(0-inf),"[6]; Sprague Dawley, rat, plasma, po, male rats, nominal dose 300 mg/kg",2530 µg·h/mL
same,AUC(0-inf),"[6]; Sprague Dawley, rat, plasma, po, male rats, nominal dose 600 mg/kg",3080 µg·h/mL
same,Cmax,[6]; [11],1100 ng/mL
same,Tmax,[6]; [11],3 h
same,Cmax,[6]; [12],28200 ng/mL
same,Tmax,[6]; [12],4 h
same,Cmax,[6]; [13],54700 ng/mL
same,Tmax,[6]; [13],4.67 h
same,Cmax,[6]; [14],181000 ng/mL
same,Tmax,[6]; [14],3.33 h
same,Cmax,[6]; [15],203000 ng/mL
same,Tmax,[6]; [15],4.67 h
same,F,"[6]; male rats, free form, 1 mg/kg",>100%
same,tlast,"[6]; male rats, free form, 1 mg/kg",48 h
same,F,"[6]; male rats, free form, 30 mg/kg",>100%
same,tlast,"[6]; male rats, free form, 30 mg/kg",48 h
same,F,[6]; [16],47%
same,tlast,[6]; [16],72 h
same,F,[6]; [17],81%
same,tlast,[6]; [17],48 h
same,F,[6]; [18],50%
same,tlast,[6]; [18],72 h
same,half-life,"[6]; male, Sprague Dawley, rat, plasma, po, 1 mg/kg, male rats, free form, 1 mg/kg, read-out: t1/2 (converted)",7.65 h
same,half-life,"[6]; male, Sprague Dawley, rat, plasma, po, 30 mg/kg, male rats, free form, 30 mg/kg, read-out: t1/2 (converted)",6.83 h
same,half-life,"[6]; male, Sprague Dawley, rat, plasma, po, 150 mg/kg, male rats, free form, 150 mg/kg, read-out: t1/2 (converted)",8.07 h
same,half-life,"[6]; male, Sprague Dawley, rat, plasma, po, 300 mg/kg, male rats, free form, 300 mg/kg, read-out: t1/2 (converted)",5.86 h
same,half-life,"[6]; male, Sprague Dawley, rat, plasma, po, 600 mg/kg, male rats, free form, 600 mg/kg, read-out: t1/2 (converted)",7.49 h
same,half-life,"[6]; male, Sprague Dawley, rat, plasma, po, administered orally to rats, read-out: half-life",5 to 9 h
same,half-life,"[6]; male, Sprague Dawley, rat, plasma, po, male rats, 1 to 600 mg/kg oral dose range, read-out: terminal half-life",5.9 to 8.1 h
same,bioavailability,"[6]; male, Sprague Dawley, rat, plasma, rats, across the 1 to 600 mg/kg oral dose range",47 to 100%
same,Tmax,"[6]; male, Sprague Dawley, rat, plasma, rats, across the oral dose range, fed conditions",3 to 4.7 h
same,clearance,[6]; rat,very low clearance
same,average plasma concentrations,[7]; female,38 µM
same,average plasma concentrations,[7]; male,16 µM
same,Cmax,[7]; female,~130 µM
same,Cmax,[7]; male,~110 µM
same,inhibition at 10 µM,hERG [8],4%
same,Ki,[9],~3 µM
same,Cmax,"[10]; CD-1, mouse, 2000 mg/kg, Female",325000 ng/mL
same,AUC(0-t),"[10]; CD-1, mouse, 2000 mg/kg, Female, read-out: AUC0-24 h",2900 µg·h/mL
same,Tmax,"[10]; CD-1, mouse, 2000 mg/kg, Female, read-out: tmax",1 h
same,Cmax,"[10]; CD-1, mouse, 2000 mg/kg, Male",264000 ng/mL
same,AUC(0-t),"[10]; CD-1, mouse, 2000 mg/kg, Male, read-out: AUC0-24 h",2680 µg·h/mL
same,Tmax,"[10]; CD-1, mouse, 2000 mg/kg, Male, read-out: tmax",1 h
same,half-life,"[10]; both sexes, mouse, 500 to 2000 mg/kg, read-out: elimination half-life (t1/2)",4.1 to 8.6 h
same,Tmax,"[10]; both sexes, mouse, 500 to 2000 mg/kg, read-out: time to reach maximum plasma concentrations (tmax)",0.5 to 2 h
same,AUC(0-t),"[10]; female, mouse, females at 500 mg/kg, read-out: AUC0-24hr",1840 µg·h/mL
same,Cmax,"[10]; female, mouse, females at 2000 mg/kg",325000 ng/mL
same,Cmax,"[10]; male, mouse, males at 500 mg/kg",142000 ng/mL
